In US20070128217A1 (priority 2003, published 2007):

Experiments:
[1] = tested on: rabbit serum obtained by immunizing a rabbit with the SARS-CoV strain Frankfurt 1; type: binding; design: Binding of a rabbit serum to linear peptides / Binding of a rabbit serum to looped peptides / Rabbit serum linear peptides / Rabbit serum looped peptides / Binding of a rabbit serum to linear peptides of protein N of SARS-CoV Urbani (Rabbit serum linear peptides) / Binding of a rabbit serum to looped/cyclic peptides of protein N of SARS-CoV Urbani (Rabbit serum looped peptides): unit not given here
[2] = tested on: antibodies in sera from SARS patients (sera 1a, 1b, 2, 6, 37, 62, London, SARS-yellow, SARS-green); type: binding, human; design: Binding of serum 6 to linear peptides of protein X1 of SARS-CoV Urbani / Binding of serum 37 to linear peptides of protein X1 of SARS-CoV Urbani / Binding of serum 6 to looped/cyclic peptide (PEPSCAN-ELISA) / Binding of serum 37 to looped/cyclic peptide (PEPSCAN-ELISA) / Binding of serum 37 to looped/cyclic peptides of protein X1 of SARS-CoV Urbani / Binding of serum 6 to linear peptides of protein X2 / Binding of serum 37 to linear peptides of protein X2 / Binding of serum 37 to looped/cyclic peptides of protein X2 of SARS-CoV Urbani / Binding of serum 6 to linear peptides of protein M of SARS-CoV Urbani / Binding of serum 37 to linear peptides of protein M of SARS-CoV Urbani / Binding of serum 6 to looped/cyclic peptides of protein M of SARS-CoV Urbani / Binding of serum 37 to looped/cyclic peptides of protein M of SARS-CoV Urbani / Binding of serum 6 to linear peptides of protein X3 of SARS-CoV Urbani / Binding of serum 37 to linear peptides of protein X3 of SARS-CoV Urbani / Binding of serum 37 to looped/cyclic peptides of protein X3 of SARS-CoV Urbani / Binding of serum 6 to linear peptides of protein X4 of SARS-CoV Urbani / Binding of serum 37 to linear peptides of protein X4 of SARS-CoV Urbani / Binding of serum 37 to looped/cyclic peptides of protein X4 of SARS-CoV Urbani / Binding of serum 6 to linear peptides of protein X5 of SARS-CoV Urbani / Binding of serum 37 to linear peptides of protein X5 of SARS-CoV Urbani / Binding of serum 37 to looped/cyclic peptides of protein X5 of SARS-CoV Urbani / Binding of serum 6 to linear peptides of protein N of SARS-CoV Urbani / Binding of serum 37 to linear peptides of protein N of SARS-CoV Urbani / Binding of serum 6 to linear peptide (PEPSCAN-ELISA) / Binding of serum 1a to looped/cyclic peptides of protein N of SARS-CoV Urbani / Binding of serum 1b to looped/cyclic peptides of protein N of SARS-CoV Urbani / Binding of serum 2 to looped/cyclic peptides of protein N of SARS-CoV Urbani / Binding of serum 6 to looped/cyclic peptides of protein N of SARS-CoV Urbani / Binding of serum 37 to looped/cyclic peptides of protein N of SARS-CoV Urbani / Binding of serum 62 to looped/cyclic peptides of protein N of SARS-CoV Urbani / Binding of serum London to looped/cyclic peptides of protein N of SARS-CoV Urbani / Binding of serum SARS-green to looped/cyclic peptides of protein N of SARS-CoV Urbani: unit not given here
[3] = tested on: control sera (pooled serum of ten healthy LUMC hospital workers; commercial negative donor pooled serum from the Dutch bloodbank); type: binding, human; design: Binding of Control serum LUMC to linear peptides / Binding of Control serum Blood-bank to linear peptides / Binding of Control serum LUMC to looped peptides / Binding of Control Serum Blood-Bank to Looped peptides / Binding of Control serum LUMC to linear peptides of the protein M of SARS-CoV Urbani / Binding of Control serum Blood-bank to linear peptides of the protein M of SARS-CoV Urbani / Binding of Control serum LUMC to looped peptides of the protein M of SARS-CoV Urbani / Binding of Control Serum Blood-Bank to Looped peptides of the protein M of SARS-CoV Urbani: unit not given here

Sequence: ACADGTRHTYQLRAR
- Recognition of the peptide by the rabbit serum [1]: recognized
- Binding of serum 1a to linear peptides of protein X4 of SARS-CoV Urbani [2]: 0.7
- Binding of serum 1a to looped/cyclic peptides of protein X4 of SARS-CoV Urbani [2]: 0.7
- Binding of serum 1b to linear peptides of protein X4 of SARS-CoV Urbani [2]: 0.6
- Binding of serum 1b to looped/cyclic peptides of protein X4 of SARS-CoV Urbani [2]: 0.3
- Binding of serum 2 to linear peptides of protein X4 of SARS-CoV Urbani [2]: 0.5
- Binding of serum 2 to looped/cyclic peptides of protein X4 of SARS-CoV Urbani [2]: 0.6
- Binding of serum 6 to linear peptides of protein X4 of SARS-CoV Urbani [2]: 0.6
- Binding of serum 6 to looped/cyclic peptides of protein X4 of SARS-CoV Urbani [2]: 0.6
- Binding of serum 37 to linear peptides of protein X4 of SARS-CoV Urbani [2]: 0.7
- Binding of serum 37 to looped/cyclic peptides of protein X4 of SARS-CoV Urbani [2]: 0.7
- Binding of serum 62 to linear peptides of protein X4 of SARS-CoV Urbani [2]: 0.8
- Binding of serum 62 to looped/cyclic peptides of protein X4 of SARS-CoV Urbani [2]: 0.6
- Binding of serum London to linear peptides of protein X4 of SARS-CoV Urbani [2]: 0.7
- Binding of serum London to looped/cyclic peptides of protein X4 of SARS-CoV Urbani [2]: 0.3
- Binding of serum SARS-green to linear peptides of protein X4 of SARS-CoV Urbani [2]: 0.7
- Binding of serum SARS-green to looped/cyclic peptides of protein X4 of SARS-CoV Urbani [2]: 0.5
- Binding of serum SARS-yellow to linear peptides of protein X4 of SARS-CoV Urbani [2]: 0.5
- Binding of serum SARS-yellow to looped/cyclic peptides of protein X4 of SARS-CoV Urbani [2]: 0.5
- Binding of Control Serum Blood-Bank to Looped peptides [3]: 0.5
- Binding of Control serum Blood-bank to linear peptides [3]: 0.6
- Binding of Control serum LUMC to linear peptides [3]: 0.6
- Binding of Control serum LUMC to looped peptides [3]: 0.5

Sequence: EEVQQELYSPLFLIV
- Rabbit serum linear peptides [1]: 0.4
- Rabbit serum looped peptides [1]: 0.5
- Binding of serum 1a to linear peptides of protein X4 of SARS-CoV Urbani [2]: 0.7
- Binding of serum 1b to linear peptides of protein X4 of SARS-CoV Urbani [2]: 0.6
- Binding of serum 2 to linear peptides of protein X4 of SARS-CoV Urbani [2]: 0.6
- Binding of serum 6 to linear peptides of protein X4 of SARS-CoV Urbani [2]: 0.6
- Binding of serum 37 to linear peptides of protein X4 of SARS-CoV Urbani [2]: 0.7
- Binding of serum 62 to linear peptides of protein X4 of SARS-CoV Urbani [2]: 0.8
- Binding of serum London to linear peptides of protein X4 of SARS-CoV Urbani [2]: 0.7
- Binding of serum SARS-green to linear peptides of protein X4 of SARS-CoV Urbani [2]: 0.7
- Binding of serum SARS-yellow to linear peptides of protein X4 of SARS-CoV Urbani [2]: 0.8
- Recognition of the peptide by sera of SARS-CoV infected individuals, and form (linear, looped/cyclic) in which it is recognized [2]: recognized in looped/cyclic form
- Binding of Control Serum Blood-Bank to Looped peptides [3]: 1.0
- Binding of Control serum Blood-bank to linear peptides [3]: 0.6
- Binding of Control serum LUMC to linear peptides [3]: 0.6
- Binding of Control serum LUMC to looped peptides [3]: 1.0

Sequence: NPETNILLNVPLRGT
- Rabbit serum linear peptides [1]: 0.4
- Rabbit serum looped peptides [1]: 0.2
- Binding of serum 1a to linear peptides of protein M of SARS-CoV Urbani [2]: 0.8
- Binding of serum 1a to looped/cyclic peptides of protein M of SARS-CoV Urbani [2]: 0.8
- Binding of serum 1b to linear peptides of protein M of SARS-CoV Urbani [2]: 0.6
- Binding of serum 1b to looped/cyclic peptides of protein M of SARS-CoV Urbani [2]: 0.7
- Binding of serum 2 to linear peptides of protein M of SARS-CoV Urbani [2]: 0.8
- Binding of serum 2 to looped/cyclic peptides of protein M of SARS-CoV Urbani [2]: 0.9
- Binding of serum 6 to linear peptides of protein M of SARS-CoV Urbani [2]: 0.3
- Binding of serum 6 to looped/cyclic peptides of protein M of SARS-CoV Urbani [2]: 0.7
- Binding of serum 37 to linear peptides of protein M of SARS-CoV Urbani [2]: 0.9
- Binding of serum 37 to looped/cyclic peptides of protein M of SARS-CoV Urbani [2]: 0.7
- Binding of serum 62 to linear peptides of protein M of SARS-CoV Urbani [2]: 0.9
- Binding of serum 62 to looped/cyclic peptides of protein M of SARS-CoV Urbani [2]: 0.7
- Binding of serum London to linear peptides of protein M of SARS-CoV Urbani [2]: 0.3
- Binding of serum London to looped/cyclic peptides of protein M of SARS-CoV Urbani [2]: 0.3
- Binding of serum SARS-green to linear peptides of protein M of SARS-CoV Urbani [2]: 0.3
- Binding of serum SARS-green to looped/cyclic peptides of protein M of SARS-CoV Urbani [2]: 0.4
- Binding of serum SARS-yellow to linear peptides of protein M of SARS-CoV Urbani [2]: 0.1
- Binding of serum SARS-yellow to looped/cyclic peptides of protein M of SARS-CoV Urbani [2]: 0.7
- Binding of Control Serum Blood-Bank to Looped peptides of the protein M of SARS-CoV Urbani [3]: 0.8
- Binding of Control serum Blood-bank to linear peptides of the protein M of SARS-CoV Urbani [3]: 0.7
- Binding of Control serum LUMC to linear peptides of the protein M of SARS-CoV Urbani [3]: 0.4
- Binding of Control serum LUMC to looped peptides of the protein M of SARS-CoV Urbani [3]: 0.9
